Results reported in PubChem BioAssay (NCI).
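Interpolation was linear, between the two tested concentrations surrounding the appropriate level; five concentrations were tested over 48 hours in 96-well plates. Abbreviation: GI50, concentration required for 50% inhibition of growth. TGI is the concentration that stops growth completely.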

Columns and labels:
Assay in all cases: growth of human tumour cells (NCI), 48 h
[1] = test system: SNB-19 CNS
[2] = test system: EKVX NSCLC
[3] = test system: SF-295 CNS
[4] = test system: UO-31 renal
[5] = test system: HL-60(TB) leukemia
[6] = test system: OVCAR-4 ovarian
[7] = test system: SW-620 colon
[8] = test system: SK-MEL-28 melanoma
[9] = test system: LOX IMVI melanoma
[10] = test system: SR leukemia
[11] = test system: SK-MEL-2 melanoma
[12] = test system: M14 melanoma
[13] = test system: COLO 205 colon
[14] = test system: SF-268 CNS
[15] = test system: MDA-MB-435
[16] = test system: NCI-H522 lung
[17] = test system: DU-145 prostate
[18] = test system: TK-10 renal
[19] = test system: HCT-116 colon
[20] = test system: HCC-2998 colon
[21] = test system: NCI-H23 lung
[22] = test system: KM12 colon
[23] = test system: OVCAR-8 ovarian
[24] = test system: CAKI-1 renal
[25] = test system: OVCAR-5 ovarian
[26] = test system: HS 578T breast
[27] = test system: A498 renal
[28] = test system: K-562 leukemia
[29] = test system: ACHN renal
[30] = test system: OVCAR-3 ovarian
[31] = test system: T-47D breast
[32] = test system: UACC-257 melanoma
[33] = test system: MALME-3M melanoma
[34] = test system: NCI-H460 lung
[35] = test system: HT29 colon
[36] = test system: CCRF-CEM leukemia
[37] = test system: SNB-75 CNS
[38] = test system: BT-549 breast
[39] = test system: SF-539 CNS
[40] = test system: PC-3 prostate
[41] = test system: HCT-15 colon
[42] = test system: U251 CNS
[43] = test system: UACC-62 melanoma
[44] = test system: MCF7 breast
[45] = test system: MOLT-4 leukemia
[46] = test system: MDA-MB-231 breast
[47] = test system: SK-MEL-5 melanoma
[48] = test system: NCI/ADR-RES ovarian
[49] = test system: SK-OV-3 ovarian
[50] = test system: NCI-H226 lung
[51] = test system: HOP-62 NSCLC
[52] = test system: SN12C renal
[53] = test system: 786-0 renal

**Q.** What does the source list for `O=C(O)c1ccc2nc(-c3ccc(OCCCCCOc4ccc(-c5nc6ccc(C(=O)O)cc6[nH]5)cc4)cc3)[nH]c2c1`?
**A.** GI50 [1]: > 100 µM; TGI [1]: > 100 µM; GI50 [2]: > 100 µM; TGI [2]: > 100 µM; GI50 [3]: > 100 µM; TGI [3]: > 100 µM; GI50 [4]: > 100 µM; TGI [4]: > 100 µM; GI50 [5]: > 100 µM; TGI [5]: > 100 µM; GI50 [6]: > 100 µM; TGI [6]: > 100 µM; GI50 [7]: > 100 µM; TGI [7]: > 100 µM; GI50 [8]: > 100 µM; TGI [8]: > 100 µM; GI50 [9]: > 100 µM; TGI [9]: > 100 µM; GI50 [10]: 22.3 µM; TGI [10]: 48.6 µM; GI50 [11]: > 100 µM; TGI [11]: > 100 µM; GI50 [12]: > 100 µM; TGI [12]: > 100 µM; GI50 [13]: > 100 µM; TGI [13]: > 100 µM; GI50 [14]: > 100 µM; TGI [14]: > 100 µM; GI50 [15]: > 100 µM; TGI [15]: > 100 µM; GI50 [16]: > 100 µM; TGI [16]: > 100 µM; GI50 [17]: > 100 µM; TGI [17]: > 100 µM; GI50 [18]: > 100 µM; TGI [18]: > 100 µM; GI50 [19]: > 100 µM; TGI [19]: > 100 µM; GI50 [20]: > 100 µM; TGI [20]: > 100 µM; GI50 [21]: > 100 µM; TGI [21]: > 100 µM; GI50 [22]: > 100 µM; TGI [22]: > 100 µM; GI50 [23]: > 100 µM; TGI [23]: > 100 µM; GI50 [24]: > 100 µM; TGI [24]: > 100 µM; GI50 [25]: > 100 µM; TGI [25]: > 100 µM; GI50 [26]: > 100 µM; TGI [26]: > 100 µM; GI50 [27]: > 100 µM; TGI [27]: > 100 µM; GI50 [28]: 22.3 µM; TGI [28]: > 100 µM; GI50 [29]: > 100 µM; TGI [29]: > 100 µM; GI50 [30]: > 100 µM; TGI [30]: > 100 µM; GI50 [31]: > 100 µM; TGI [31]: > 100 µM; GI50 [32]: > 100 µM; TGI [32]: > 100 µM; GI50 [33]: > 100 µM; TGI [33]: > 100 µM; GI50 [34]: > 100 µM; TGI [34]: > 100 µM; GI50 [35]: > 100 µM; TGI [35]: > 100 µM; GI50 [36]: 18.8 µM; TGI [36]: 44.2 µM; GI50 [37]: > 100 µM; TGI [37]: > 100 µM; GI50 [38]: > 100 µM; TGI [38]: > 100 µM; GI50 [39]: > 100 µM; TGI [39]: > 100 µM; GI50 [40]: > 100 µM; TGI [40]: > 100 µM; GI50 [41]: > 100 µM; TGI [41]: > 100 µM; GI50 [42]: > 100 µM; TGI [42]: > 100 µM; GI50 [43]: > 100 µM; TGI [43]: > 100 µM; GI50 [44]: > 100 µM; TGI [44]: > 100 µM; GI50 [45]: 29.7 µM; TGI [45]: > 100 µM; GI50 [46]: > 100 µM; TGI [46]: > 100 µM; GI50 [47]: > 100 µM; TGI [47]: > 100 µM; GI50 [48]: > 100 µM; TGI [48]: > 100 µM; GI50 [49]: > 100 µM; TGI [49]: > 100 µM; GI50 [50]: > 100 µM; TGI [50]: > 100 µM; GI50 [51]: > 100 µM; TGI [51]: > 100 µM; GI50 [52]: > 100 µM; TGI [52]: > 100 µM; GI50 [53]: > 100 µM; TGI [53]: > 100 µM
